Assay results as given in paper PMC6479349, “Derivatives of 3-Aminopyrazine-2-carboxamides: Synthesis, Antimicrobial Evaluation, and in Vitro Cytotoxicity” (Molecules, 2019).
Values after ≈ are worked out from the molar mass of the structure shown. Values joined by “and” are separate entries in the source; they are usually repeats but may differ in a detail not shown here. Equal entries are not always repeated. Where two headings read alike, the source gives them in different places.

Tests used:
[1] = tested on: Trichophyton interdigitale CCM 8377; assay: Antifungal microdilution broth MIC; settings: for MIC: Trichophyton interdigitale, CCM8377, 72 h, read-out: MIC72h TI
[2] = tested on: Mycobacterium smegmatis DSM 43465; assay: Antimycobacterial microdilution broth panel MIC (resazurin); assay type: cell-based
[3] = Lipophilicity by reverse phase HPLC (log k); settings: RP-HPLC C18, MeOH 70% / H2O 30%, 30 °C
Protocol: The mobile phase consisted of MeOH (HPLC grade, 70%) and H2O (HPLC-Milli-Q Grade, 30%). The flow rate was 1.0 mL/min, samples were injected in a volume of 20 µL, and the column temperature was 30 °C. Detection and monitoring wavelength were 210 nm and 270 nm, respectively. Retention times (Rt) were measured in minutes. The dead time of the system (Dt) was determined as the retention time of the KI methanolic solution. Capacity factors k for individual compounds were calculated according to the formula k = (Rt – Dt)/Dt. Capacity factor k was converted to log scale and (log k) and used as a measure of lipophilicity.

[4] = tested on: Mycobacterium tuberculosis H37Rv; assay: Antimycobacterial microdilution broth MIC (Alamar Blue); assay type: cell-based
[5] = tested on: Mycobacterium aurum DSM 43999; assay: Antimycobacterial microdilution broth panel MIC (resazurin); assay type: cell-based; settings: Mycolicibacterium aurum, DSM43999
[6] = tested on: M. kansasii CNCTC My 235/80; assay: Antimycobacterial microdilution broth MIC (Alamar Blue); assay type: cell-based, Mycobacterium kansasii; settings: Mycobacterium kansasii
tested bacterial strains = assay: Antibacterial microdilution broth screening, strain not specified; settings: read-out: MIC against the tested strains (antibacterial)
[7] = tested on: Staphylococcus epidermidis 112-2016; assay: Antibacterial microdilution broth MIC
[8] = tested on: Escherichia coli CCM 3954; assay: Antibacterial microdilution broth MIC; settings: CCM3954, 48 h, read-out: MIC Escherichia coli (standards)
[9] = tested on: Staphylococcus aureus CCM 4223; assay: Antibacterial microdilution broth MIC
[10] = tested on: Klebsiella pneumoniae 64-2016; assay: Antibacterial microdilution broth MIC; settings: Klebsiella pneumoniae, 642016, 48 h, read-out: MIC Klebsiella pneumonia (standards)
[11] = tested on: Serratia marcescens 62-2016; assay: Antibacterial microdilution broth MIC; settings: Serratia marcescens, 622016, 48 h, read-out: MIC Serratia marcescens (standards)
[12] = tested on: Staphylococcus aureus methicillin resistant CCM 4750; assay: Antibacterial microdilution broth MIC
[13] = tested on: Pseudomonas aeruginosa CCM 3955; assay: Antibacterial microdilution broth MIC; settings: CCM3955, 48 h, read-out: MIC Pseudomonas aeruginosa (standards)
[14] = tested on: Enterococcus faecalis CCM 4224; assay: Antibacterial microdilution broth MIC; settings: CCM4224, 48 h, read-out: MIC Enterococcus faecalis (standards)
[15] = In vitro cytotoxicity, CellTiter 96 Aqueous One; settings: human
[16] = Mycolicibacterium smegmatis, DSM43465
[17] = Mycolicibacterium smegmatis, DSM43465, value in parentheses
[18] = Mycobacterium tuberculosis, H37RV, M. tuberculosis H37Rv, value in parentheses
[19] = Mycobacterium tuberculosis, H37RV, pH 6.6, M. tuberculosis H37Rv, Middlebrook 7H9 pH 6.6
[20] = M. tuberculosis H37Rv, Middlebrook 7H9 pH 6.6
[21] = M. tuberculosis H37Rv, value in parentheses

Structure (SMILES)	MIC [2, 16]	MIC [2, 17]	log k [3]	MIC [4, 18]	MIC [4, 19]	further results
Nc1nccnc1C(=O)NCc1ccccc1 [Compound 1, 3-Amino-N-benzylpyrazine-2-carboxamide]	> 500 µg/mL	> 2190 µM	0.056	> 438 µM	> 100 µg/mL	antifungal activity against TI [1]: showed activity mainly against TI
CO[C@H]1/C=C/O[C@@]2(C)Oc3c(C)c(O)c4c(O)c(c(/C=N/N5CCN(C)CC5)c(O)c4c3C2=O)NC(=O)/C(C)=C\C=C\[C@H](C)[C@H](O)[C@@H](C)[C@@H](O)[C@@H](C)[C@H](OC(C)=O)[C@@H]1C [RIF, rifampicin, reference compound]	12.5 to 25 µg/mL					MIC [5]: 0.78 to 1.56 µg/mL (≈ 0.948 to 1.9 µM)
Cc1ccc(CNC(=O)c2nccnc2N)cc1 [Compound 3, 3-Amino-N-(4-methylbenzyl)pyrazine-2-carboxamide]	> 500 µg/mL	> 2060 µM	0.289	413 µM	50 to 100 µg/mL	antifungal activity against TI [1]: showed activity mainly against TI; MIC Mtb [4, 20]: 100 µg/mL (≈ 413 µM)
CCCCCNC(=O)c1nccnc1N [Compound 9, 3-Amino-N-pentylpyrazine-2-carboxamide]	> 500 µg/mL	> 2400 µM	0.327	> 480 µM	> 100 µg/mL	MIC [1]: 500 µM (≈ 104 µg/mL)
Nc1nccnc1C(=O)NCc1cccc(C(F)(F)F)c1 [Compound 7, 3-Amino-N-(3-(trifluoromethyl)benzyl)pyrazine-2-carboxamide]	250 µg/mL	844 µM	0.282	169 µM	50 to 100 µg/mL	antifungal activity against TI [1]: showed activity mainly against TI; MIC Mtb [4, 20]: 50 µg/mL (≈ 169 µM)
Cc1ccccc1CNC(=O)c1nccnc1N [Compound 2, 3-Amino-N-(2-methylbenzyl)pyrazine-2-carboxamide]	> 500 µg/mL	> 2060 µM	0.278	> 413 µM	> 100 µg/mL	
COc1ccc(CNC(=O)c2nccnc2N)c(OC)c1 [Compound 5, 3-Amino-N-(2,4-dimethoxybenzyl)pyrazine-2-carboxamide]	> 500 µg/mL	> 1730 µM	0.188	> 347 µM	> 100 µg/mL	
CCCCCCCCNC(=O)c1nccnc1N [Compound 12, 3-Amino-N-octylpyrazine-2-carboxamide]	62.5 µg/mL	250 µM	1.057	100 µM	25 µg/mL	MIC [6]: 25 µg/mL and 100 µM; MIC [1]: 250 µM (≈ 62.6 µg/mL); MIC ([2]; value in parentheses): 249.7 µM; MIC [4, 21]: 99.9 µM; MIC (tested bacterial strains): 62.5 µM (≈ 15.6 µg/mL)
Cc1ccc(C)c(NC(=O)c2nccnc2N)c1 [Compound 15, 3-Amino-N-(2,5-dimethylphenyl)pyrazine-2-carboxamide]	> 500 µg/mL	> 2060 µM	0.778	> 413 µM	> 100 µg/mL	
Nc1nccnc1C(=O)Nc1ccc(F)cc1F [Compound 18, 3-Amino-N-(2,4-difluorophenyl)pyrazine-2-carboxamide]	> 500 µg/mL	> 2000 µM	0.422	> 400 µM	> 100 µg/mL	
CNC(C)C1CCC(N)C(OC2C(N)CC(N)C(OC3OCC(C)(O)C(NC)C3O)C2O)O1 (stereo not shown) [gentamicin]						MIC ([7]; Staphylococcus epidermidis, 1122016, 48 h, read-out: MIC Staphylococcus epidermidis (standards)): > 8 µg/mL; MIC [8]: 1 to 2 µg/mL (≈ 2.09 to 4.19 µM); MIC ([9]; CCM4223, 48 h, read-out: MIC Staphylococcus aureus (standards)): 1 µg/mL; MIC [10]: > 8 µg/mL; MIC [11]: 2 µg/mL (≈ 4.19 µM); MIC ([12]; CCM4750, 48 h, read-out: MIC Staphylococcus aureus methicillin resistant (standards)): 16 to 32 µg/mL; MIC [13]: 0.5 µg/mL (≈ 1.05 µM); MIC [14]: 8 µg/mL (≈ 16.8 µM)
Nc1nccnc1C(=O)Nc1ccc(Cl)c(Cl)c1 [Compound 19, 3-Amino-N-(3,4-dichlorophenyl)pyrazine-2-carboxamide]	> 500 µg/mL	> 1770 µM	0.778	177 µM	50 µg/mL	
CCCCCCNC(=O)c1nccnc1N [Compound 10, 3-Amino-N-hexylpyrazine-2-carboxamide]	250 µg/mL	1120 µM	0.569	450 µM	100 µg/mL	MIC [6]: 100 µg/mL and 450 µM; IC50 at 24 h [15]: 389 µM; MIC [1]: 250 µM (≈ 55.6 µg/mL); MIC [4, 21]: 449.9 µM; MIC (tested bacterial strains): 500 µM (≈ 111 µg/mL)
CCc1ccc(NC(=O)c2nccnc2N)cc1 [Compound 16, 3-Amino-N-(4-ethylphenyl)pyrazine-2-carboxamide]	> 500 µg/mL	> 2060 µM	0.623	> 413 µM	> 100 µg/mL	IC50 at 24 h [15]: > 250 µM
COc1ccc(CNC(=O)c2nccnc2N)cc1 [Compound 4, 3-Amino-N-(4-methoxybenzyl)pyrazine-2-carboxamide]	> 500 µg/mL	> 1940 µM	0.026	387 µM	50 to 100 µg/mL	antifungal activity against TI [1]: showed activity mainly against TI; MIC Mtb [4, 20]: 100 µg/mL (≈ 387 µM)
CCCCCCCNC(=O)c1nccnc1N [Compound 11, 3-Amino-N-heptylpyrazine-2-carboxamide]	62.5 µg/mL	264 µM	0.813	212 µM	50 µg/mL	MIC [6]: 50 µg/mL and 212 µM; MIC [1]: 500 µM (≈ 118 µg/mL); MIC ([2]; value in parentheses): 264.5 µM; MIC [4, 21]: 211.6 µM; MIC (tested bacterial strains): 250 µM (≈ 59.1 µg/mL)
Nc1nccnc1C(=O)NCc1ccc(C(F)(F)F)cc1 [Compound 8, 3-Amino-N-(4-(trifluoromethyl)benzyl)pyrazine-2-carboxamide]	> 500 µg/mL	> 1690 µM	0.308	169 µM	50 to 100 µg/mL	MIC Mtb [4, 20]: 50 µg/mL (≈ 169 µM)
Nc1nccnc1C(=O)Nc1ccc(C(F)(F)F)cc1 [Compound 20, 3-Amino-N-(4-(trifluoromethyl)phenyl)pyrazine-2-carboxamide]	31.2 µg/mL	111 µM	0.525	177 µM	50 µg/mL	MIC ([7]; Staphylococcus epidermidis, 1122016, read-out: MIC S. epidermidis): 62.5 µM; MIC ([9]; CCM4223, read-out: MIC Staphylococcus aureus): 31.2 µM; IC50 at 24 h [15]: 41.4 µM; MIC ([2]; value in parentheses): 110.7 µM; MIC ([12]; CCM4750|MRSA, read-out: MIC methicillin resistant S. aureus (MRSA)): 62.5 µM
Nc1nccnc1C(=O)NCc1ccc(Cl)c(Cl)c1 [Compound 6, 3-Amino-N-(3,4-dichlorobenzyl)pyrazine-2-carboxamide]	> 500 µg/mL	> 1680 µM	0.493	> 336 µM	> 100 µg/mL	
NC(=O)c1cnccn1 [PZA, Pyrazinamide, reference compound]	> 100 µg/mL				100 µg/mL	
